These results are taken from patent publication US20150017673A1, “COMPOSITIONS AND METHODS FOR DRUG-SENSITIZATION OR INHIBITION OF A CANCER CELL” (priority 2012, published 2015).

The test system of data set [1] is CHOP-sensitive NHL cell line CRL2631. Put plainly: Cell growth assay (resazurin) on CHOP-sensitive CRL2631 NHL cells. In kind it is cell-based, human. On the technique in general: Alamar Blue is a resazurin reagent that responds to reducing activity.
The subject of data set [2] is CHOP-sensitive CRL2631 cells. The experiment in a line: Prevention of the emergence of CHOP resistance. In kind it is cell-based, human. The note with it: one week CHOP+rifabutin, half (0.5×) and full (1×) doses of CHOP. As for the experimental part: The ability of rifabutin to prevent the emergence of CHOP-resistance was determined by treating CHOP-sensitive CRL2631 cells with either CHOP alone or CHOP+rifabutin for one week. Following treatment, the cells were grown in the absence of CHOP, then their sensitivity to CHOP was assayed by retreatment with CHOP, followed by counting of viable cells. […] A 1×CHOP dose in this experiment corresponds to final concentrations of the following components: 0.83 μM 4-hydroxycyclophosphamide [4HC, a pre-activated form of cyclophosphamide], 0.057 μM doxorubicin, 0.01 μM vincristine, and 0.186 μM prednisone.

For data set [3] the following is noted: cited from earlier work.
Data set [4] concerns the target ABCB1 pumps (Homo sapiens, UniProt P08183). The note with it: NCI/ADR-RES and G3 cells.
Data set [5] concerns CRL2631 cells. The experiment in a line: Modified Boyden chamber invasion assay, CRL2631 cells. The note with it: 10 μM rifabutin 24 hours; DMSO 39,356. In kind it is cell-based, human. As for the experimental part: (§1) A modified Boyden chamber assay was used as an independent method to evaluate rifabutin's ability to suppress invasion/metastasis. […] Cell invasion was assessed with a Chemicon QCM Collagen Invasion Assay (Millipore). The assay is a 96-well plate assay wherein each well is equipped with a suspended insert. Inserts contain an 8-micron membrane coated with a thin layer of polymerized collagen. Invading cells migrate through the collagen layer and attach to the bottom of the membrane. Cells were detached from the membrane and lysed prior to detection via CyQuant dye. Fluorescence intensity is proportional to number of invading cells. […] In CRL2631 cells RLU decreases from 39,356 to 27,432 RLU in the presence of rifabutin (p<0.05).

The subject of data set [6] is lymphoma cell line G3. The experiment in a line: Cell growth assay (resazurin fluorescence) on CHOP-resistant G3 NHL cells. In kind it is cell-based, human. The note with it: for IC50: Homo sapiens. An outline of the steps:
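CHOP-resistant G3 NHL cells grown five days in RPMI medium were counted by haemocytometer and set to 625,000 cells/ml. They were then added to plates holding test drug, first dissolved in 100% DMSO and diluted in 0.1M PBS to 0.5% final DMSO. Plates incubated 96 hours at 37° C. and 5% CO2. Resazurin at 20 μg/ml was added for a further 24 hours, and plates were read on a BMG Polarstar at 573-605.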

Data set [7] concerns multi-drug resistant ovarian carcinoma cell line SK-OV3. Put plainly: Cell growth assay on SK-OV3 cells. In kind it is cell-based, human. The note with it: SK-OV3, ovarian carcinoma.
The subject of data set [8] is primary human fibroblasts. The note with it: with and without 2 uM Dox.
For data set [9], the system named is G3 cells. Put plainly: Modified Boyden chamber invasion assay, G3 cells. The class given is cell-based, human. The note with it: 10 μM rifabutin 24 hours; DMSO 170,374. As for the experimental part:
as §1

Data set [10] concerns ROS in G3 lymphoma cells. The experiment in a line: Intracellular ROS (CellROX, flow cytometry) in G3 cells. The note with it: 10 uM rifabutin over time. In kind it is cell-based, human.
For data set [11], the system named is G3 CHOP-resistant NHL cells. As for the experimental part: In a first efficacy study, 6-8 week old female SCID mice (7 mice per treatment arm) were injected subcutaneously on both flanks with 1×10^7 G3 CHOP-resistant NHL cells. Once palpable tumors (about […] size) appeared, therapies (CHOP or CHOP+rifabutin) were started. CHOP was administered at the maximum tolerated dose (cyclophosphamide, 40 mg/kg i.v.; doxorubicin, 3.3 mg/kg i.v.; vincristine, 0.5 mg/kg i.v.; and prednisone, 0.2 mg/kg orally daily for 5 d) weekly for 3 weeks. Rifabutin in an amount of 100 mg/kg was administered on the day of each CHOP treatment and 24-hours later by gavage. Mouse body weight and tumor size were monitored every two days and tumor size measured by caliper. The tumor volume formula (L*W*W)/2 was used to calculate tumor mass.
A second efficacy study was conducted where mice were treated before the appearance of palpable tumors. In that experiment, one week after transplantation of CHOP-resistant G3 cells, one group (7 mice) was treated with CHOP-only and a second group (8 mice) was treated with CHOP+rifabutin.
A third study was conducted in which mice injected with CHOP-resistant G3 cells received reduced dosages of CHOP in combination with 33 mg/kg rifabutin. CHOP+rifabutin was administered weekly beginning one week post-inoculation. Control mice were given no CHOP or rifabutin.
SCID mice were injected with CHOP-resistant G3 cells in the same manner as the first efficacy study above. Treatments began 2 weeks post-inoculation and were administered twice weekly.

Where two headings read alike, the source gives them in different places.

Chain of ABCB1 pumps (P08183 whole entry): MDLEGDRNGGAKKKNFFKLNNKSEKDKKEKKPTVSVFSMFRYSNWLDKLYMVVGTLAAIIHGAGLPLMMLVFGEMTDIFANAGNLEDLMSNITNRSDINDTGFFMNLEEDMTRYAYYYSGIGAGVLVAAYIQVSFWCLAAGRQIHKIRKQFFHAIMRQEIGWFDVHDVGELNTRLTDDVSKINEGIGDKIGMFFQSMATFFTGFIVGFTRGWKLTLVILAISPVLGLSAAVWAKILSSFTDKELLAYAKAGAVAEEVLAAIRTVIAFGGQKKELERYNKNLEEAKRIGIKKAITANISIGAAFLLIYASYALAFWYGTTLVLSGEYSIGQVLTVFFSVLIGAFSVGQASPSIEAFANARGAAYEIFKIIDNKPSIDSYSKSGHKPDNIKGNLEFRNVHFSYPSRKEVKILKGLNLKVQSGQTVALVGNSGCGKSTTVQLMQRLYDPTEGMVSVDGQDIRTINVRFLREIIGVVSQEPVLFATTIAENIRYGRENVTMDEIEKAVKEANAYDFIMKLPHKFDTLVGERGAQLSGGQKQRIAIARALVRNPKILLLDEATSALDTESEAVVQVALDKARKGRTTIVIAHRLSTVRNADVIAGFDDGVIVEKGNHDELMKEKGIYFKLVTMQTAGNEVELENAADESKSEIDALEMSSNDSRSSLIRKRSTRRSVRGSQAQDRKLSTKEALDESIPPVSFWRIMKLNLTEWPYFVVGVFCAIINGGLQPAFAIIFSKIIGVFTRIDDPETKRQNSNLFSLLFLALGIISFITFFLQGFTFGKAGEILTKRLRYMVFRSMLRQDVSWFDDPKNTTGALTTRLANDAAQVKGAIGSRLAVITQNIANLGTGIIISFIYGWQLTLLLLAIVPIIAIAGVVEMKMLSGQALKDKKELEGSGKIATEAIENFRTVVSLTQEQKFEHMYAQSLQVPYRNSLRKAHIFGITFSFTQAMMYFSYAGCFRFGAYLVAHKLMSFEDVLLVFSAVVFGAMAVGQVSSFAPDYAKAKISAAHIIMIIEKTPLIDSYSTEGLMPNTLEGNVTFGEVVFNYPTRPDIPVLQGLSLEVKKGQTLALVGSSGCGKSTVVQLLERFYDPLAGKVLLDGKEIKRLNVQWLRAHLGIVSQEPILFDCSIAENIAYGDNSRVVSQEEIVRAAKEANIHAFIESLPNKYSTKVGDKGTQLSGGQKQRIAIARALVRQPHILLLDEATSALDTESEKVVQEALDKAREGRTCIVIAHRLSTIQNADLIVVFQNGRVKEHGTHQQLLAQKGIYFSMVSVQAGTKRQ

`CO[C@H]1/C=C/O[C@@]2(C)Oc3c(C)c(O)c4c(c3C2=O)C2=NC3(CCN(CC(C)C)CC3)NC2=C(NC(=O)/C(C)=C\C=C\[C@H](C)[C@H](O)[C@@H](C)[C@@H](O)[C@@H](C)[C@H](OC(C)=O)[C@@H]1C)C4=O` [Rifabutin, rifabutin]: the “sensitivity of cells to CHOP relative to a control drug” value in data set [1] (CHOP-sensitive cells as printed, FIG. 2B) is “enhanced the sensitivity”. The “CHOP sensitivity of low-ROS cell population” value in [1] (low-ROS CRL2631 cells, 10 uM rifabutin) is “sensitized to CHOP”. In addition, the “cell growth in the absence of CHOP” value is “did not affect the growth” in data set [1] (rifabutin alone, CRL2631) and “did not affect the growth” in [6] (rifabutin alone, G3). Moreover, the “emergence of CHOP-resistant cells” value in data set [2] is listed as “significantly repress the emergence of CHOP-resistant cells”. Further, in data set [3] (biphasic plasma elimination), the initial half-life entry is on record as “approximately 4 hours”. Also, the mean terminal half-life in data set [3] (biphasic plasma elimination) is on record as 45 (±17) hours. The “mean (±SD) peak plasma concentration (Cmax)” value in [3] (single oral dose of 300 mg) is 375 (±267) ng/mL. Moreover, the “inhibition of efflux pumps” value in data set [4] is “clear inhibition of efflux pumps”. The “relative fluorescence (invading cells)” value in [5] was 27,432 RLU; in data set [9], 114,395 RLU. For the same molecule, the “Magnitude of potentiation in combination with doxorubicin” value is “+++ (potentiation greater than 5 fold increase)” in data set [6] (G3, lymphoma B cells) and “+ (potentiation between 1.2 to 2.0 fold increase)” in [7]. The IC50 (commonly the concentration at which inhibition is half-maximal) is over 64 µM in data set [6] (analog alone, lymphoma cell line G3, read-out: IC50) and 0.25 µM in data set [6] (with 1 μM doxorubicin, lymphoma cell line G3, read-out: IC50 (μM) with doxorubicin (1 μM)). In addition, the “Fold increase in potency over DOX alone” value in data set [6] (lymphoma cell line G3) amounted to 9.4 fold. Also, the “comparative cytotoxicity to normal cells” value in data set [8] is “not toxic to normal cells”. Further, the ROS induction entry in [10] is “rapidly induces ROS”. Also, the “overall tumor burden per mouse” value in [11] (first study, rifabutin 100 mg/kg by gavage with CHOP at maximum tolerated dose weekly for 3 weeks, versus CHOP only) is “much lower”. The “toxicity of the rifabutin dosage in the mice” value in [11] (mouse, in vivo) is listed as “little or not toxicity”. Besides, the “injection sites that developed tumors” value in data set [11] (second study, treated before palpable tumors, CHOP+rifabutin group, 6 of 16 sites) came out at 37.5%. Moreover, the tumor load result in data set [11] (third study, reduced dosages of CHOP with 33 mg/kg rifabutin weekly, versus untreated mice) was “significantly less”.
